Assay results taken from ChEMBL document CHEMBL4680314, “Discovery of potent glycogen synthase kinase 3/cholinesterase inhibitors with neuroprotection as potential therapeutic agent for Alzheimer's disease” (Bioorg Med Chem, 2021).
One block for each compound: values may come before it. The source made the active and inactive calls. No cut-off for these calls is given here.

How the values were obtained:
Cholinesterase = Cholinesterase (Homo sapiens, UniProt P06276); experiment: Inhibition of human BChE using butyrylthiocholineiodide as substrate incubated for 10 mins by Ellman's method
in vitro = conditions: PAMPA
Description: Effective permeability of compound in PBS/EtOH buffer (7:3) at 25 ug/ml incubated for 18 hrs by PAMPA-BBB assay

[1] = target: Glycogen synthase kinase-3 beta (Homo sapiens, UniProt P49841); experiment: biochemical
Description: Inhibition of recombinant human N-terminal His6-tagged GSK3beta H350L mutant expressed in baculovirus infected Sf21 cells using prephosphorylated polypeptide as substrate incubated for 1 min followed by substrate addition and measured after 30 mins by Kinase-Glo luminescence assay

Acetylcholinesterase = Acetylcholinesterase (Homo sapiens, UniProt P22303); experiment: Inhibition of human recombinant AChE expressed in HEK293 cells using acetylthiocholine iodide as substrate incubated for 10 mins by Ellman's method; assay type: cell-based
[2] = AUC (0 to infinity) in Sprague-Dawley rat at 10 mg/kg, po by LC-MS/MS analysis; assay type: ADME, organism-based; parameters: route oral, time infinity, dose 10 mg/kg; conditions: in vivo
[3] = Half life in Sprague-Dawley rat at 10 mg/kg, iv measured upto 24 hrs by LC-MS/MS analysis; assay type: ADME, organism-based; conditions: in vivo
[4] = Tmax in Sprague-Dawley rat at 10 mg/kg, iv measured upto 24 hrs by LC-MS/MS analysis; assay type: ADME, organism-based; conditions: in vivo
[5] = Clearance in Sprague-Dawley rat at 10 mg/kg, po measured upto 24 hrs by LC-MS/MS analysis; assay type: ADME, organism-based; conditions: in vivo
[6] = MRT (0 to t) in Sprague-Dawley rat at 10 mg/kg, po measured upto 24 hrs by LC-MS/MS analysis; assay type: ADME, organism-based; conditions: in vivo
[7] = Tmax in Sprague-Dawley rat at 10 mg/kg, po measured upto 24 hrs by LC-MS/MS analysis; assay type: ADME, organism-based; conditions: in vivo
[8] = AUC (0 to infinity) in Sprague-Dawley rat at 10 mg/kg, iv by LC-MS/MS analysis; assay type: ADME, organism-based; parameters: time infinity, route intravenous, dose 10 mg/kg; conditions: in vivo
[9] = Oral bioavailability in Sprague-Dawley rat at 10 mg/kg measured upto 24 hrs by LC-MS/MS analysis; assay type: ADME, organism-based; conditions: in vivo
[10] = Volume of distribution in Sprague-Dawley rat at 10 mg/kg, po measured upto 24 hrs by LC-MS/MS analysis; assay type: ADME, organism-based; conditions: in vivo
[11] = Clearance in Sprague-Dawley rat at 10 mg/kg, iv measured upto 24 hrs by LC-MS/MS analysis; assay type: ADME, organism-based; conditions: in vivo
[12] = AUC (0 to 24 hrs) in Sprague-Dawley rat at 10 mg/kg, po measured upto 24 hrs by LC-MS/MS analysis; assay type: ADME, organism-based; parameters: route oral, dose 10 mg/kg, time <=24; conditions: in vivo
[13] = Cmax in Sprague-Dawley rat at 10 mg/kg, po measured upto 24 hrs by LC-MS/MS analysis; assay type: ADME, organism-based; parameters: route oral, dose 10 mg/kg, time <=24; conditions: in vivo
[14] = Cmax in Sprague-Dawley rat at 10 mg/kg, iv measured upto 24 hrs by LC-MS/MS analysis; assay type: ADME, organism-based; parameters: route intravenous, dose 10 mg/kg, time <=24; conditions: in vivo
[15] = Half life in Sprague-Dawley rat at 10 mg/kg, po measured upto 24 hrs by LC-MS/MS analysis; assay type: ADME, organism-based; conditions: in vivo
[16] = AUC (0 to 24 hrs) in Sprague-Dawley rat at 10 mg/kg, iv measured upto 24 hrs by LC-MS/MS analysis; assay type: ADME, organism-based; parameters: route intravenous, dose 10 mg/kg, time <=24; conditions: in vivo
[17] = MRT (0 to t) in Sprague-Dawley rat at 10 mg/kg, iv measured upto 24 hrs by LC-MS/MS analysis; assay type: ADME, organism-based; conditions: in vivo
[18] = Volume of distribution in Sprague-Dawley rat at 10 mg/kg, iv measured upto 24 hrs by LC-MS/MS analysis; assay type: ADME, organism-based; conditions: in vivo
[19] = AUC (0 to infinity) in Sprague-Dawley rat at 5 mg/kg, iv by LC-MS/MS analysis; assay type: ADME, organism-based; parameters: route intravenous, dose 5 mg/kg; conditions: in vivo
BV-2 [20] = experiment: Anti-inflammatory activity in mouse BV-2 cells assessed as reduction in LPS-induced TNFalpha production incubated for 1 hr followed by LPS stimulation and measured after 24 hrs by ELISA; assay type: functional, cell-based; conditions: dose 2-8 µM, time 25.0 hrs
[21] = Plasma concentration in ICR mouse at 15 mg/kg, po measured after 90 mins by LC-MS/MS analysis; assay type: ADME, organism-based
[22] = Toxicity in ICR mouse assessed as reduction in body weight at 15 mg/kg, po; assay type: organism-based; conditions: in vivo
BV-2 [23] = experiment: Cytotoxicity against mouse BV-2 cells assessed as effect on cell morphology; assay type: cell-based
[24] = Volume of distribution in Sprague-Dawley rat at 5 mg/kg, iv measured upto 24 hrs by LC-MS/MS analysis; assay type: ADME, organism-based; conditions: in vivo
[25] = Ratio of drug level in ICR mouse brain to blood at 15 mg/kg, po measured after 90 mins by LC-MS/MS analysis; assay type: ADME, organism-based; conditions: 1.5 h
BV-2 [26] = experiment: Anti-inflammatory activity in mouse BV-2 cells assessed as reduction in LPS-induced TNFalpha expression at 4 uM incubated for 1 hr followed by LPS stimulation and measured after 24 hrs by immunofluorescence based laser confocal microscopy; assay type: functional, cell-based; conditions: time 25.0 hrs
BV-2 [27] = experiment: Anti-inflammatory activity in mouse BV-2 cells assessed as reduction in LPS-induced ROS production at 3 uM incubated for 1 hr followed by LPS stimulation and measured after 24 hrs by DCFH-DA staining based inverted fluorescence microscopy; assay type: functional, cell-based; conditions: time 25.0 hrs
BV-2 [28] = experiment: Anti-inflammatory activity in mouse BV-2 cells assessed as reduction in LPS-induced IL-1beta production incubated for 1 hr followed by LPS stimulation and measured after 24 hrs by ELISA; assay type: functional, cell-based; conditions: dose 2-8 µM, time 25.0 hrs
[29] = Cmax in Sprague-Dawley rat at 5 mg/kg, iv measured upto 24 hrs by LC-MS/MS analysis; assay type: ADME, organism-based; parameters: route intravenous, dose 5 mg/kg, time <=24; conditions: in vivo
[30] = MRT (0 to t) in Sprague-Dawley rat at 5 mg/kg, iv measured upto 24 hrs by LC-MS/MS analysis; assay type: ADME, organism-based; conditions: in vivo
[31] = Toxicity in ICR mouse model of scopolamine-induced cognitive dysfunction assessed as effect on locomotor activity by measuring effect on swimming speed at 15 mg/kg, po by Morris water maze test; assay type: organism-based; conditions: in vivo
[32] = Drug uptake in mouse BV-2 cells at 25 uM incubated for 1 hr measured per million cells by LC-MS/MS analysis; assay type: ADME, cell-based; conditions: bv-2, 1 h
BV-2 [33] = experiment: Anti-inflammatory activity in mouse BV-2 cells assessed as reduction in LPS-induced IL-1beta expression at 4 uM incubated for 1 hr followed by LPS stimulation and measured after 24 hrs by immunofluorescence based laser confocal microscopy; assay type: functional, cell-based; conditions: time 25.0 hrs
[34] = Clearance in Sprague-Dawley rat at 5 mg/kg, iv measured upto 24 hrs by LC-MS/MS analysis; assay type: ADME, organism-based; conditions: in vivo
[35] = AUC (0 to 24 hrs) in Sprague-Dawley rat at 5 mg/kg, iv measured upto 24 hrs by LC-MS/MS analysis; assay type: ADME, organism-based; parameters: route intravenous, dose 5 mg/kg, time <=24; conditions: in vivo
[36] = Half life in Sprague-Dawley rat at 5 mg/kg, iv measured upto 24 hrs by LC-MS/MS analysis; assay type: ADME, organism-based; conditions: in vivo
[37] = Tmax in Sprague-Dawley rat at 5 mg/kg, iv measured upto 24 hrs by LC-MS/MS analysis; assay type: ADME, organism-based; conditions: in vivo

Cholinesterase, sequence (P06276 whole entry): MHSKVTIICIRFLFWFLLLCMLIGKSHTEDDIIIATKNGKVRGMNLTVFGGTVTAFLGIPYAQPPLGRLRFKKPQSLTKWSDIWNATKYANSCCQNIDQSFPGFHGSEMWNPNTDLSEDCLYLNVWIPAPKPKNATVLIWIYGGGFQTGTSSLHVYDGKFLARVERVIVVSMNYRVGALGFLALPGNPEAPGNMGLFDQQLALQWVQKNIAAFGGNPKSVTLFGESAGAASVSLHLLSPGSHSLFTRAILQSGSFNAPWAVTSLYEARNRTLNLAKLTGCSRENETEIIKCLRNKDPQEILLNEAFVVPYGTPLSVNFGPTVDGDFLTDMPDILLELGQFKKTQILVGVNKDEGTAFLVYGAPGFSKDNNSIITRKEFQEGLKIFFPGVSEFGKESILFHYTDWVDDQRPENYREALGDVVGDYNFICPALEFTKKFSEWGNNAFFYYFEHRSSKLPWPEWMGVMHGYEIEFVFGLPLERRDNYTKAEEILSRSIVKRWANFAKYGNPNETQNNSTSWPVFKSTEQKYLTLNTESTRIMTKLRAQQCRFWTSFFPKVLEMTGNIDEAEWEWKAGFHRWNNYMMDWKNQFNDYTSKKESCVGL
Glycogen synthase kinase-3 beta, sequence (P49841 whole entry): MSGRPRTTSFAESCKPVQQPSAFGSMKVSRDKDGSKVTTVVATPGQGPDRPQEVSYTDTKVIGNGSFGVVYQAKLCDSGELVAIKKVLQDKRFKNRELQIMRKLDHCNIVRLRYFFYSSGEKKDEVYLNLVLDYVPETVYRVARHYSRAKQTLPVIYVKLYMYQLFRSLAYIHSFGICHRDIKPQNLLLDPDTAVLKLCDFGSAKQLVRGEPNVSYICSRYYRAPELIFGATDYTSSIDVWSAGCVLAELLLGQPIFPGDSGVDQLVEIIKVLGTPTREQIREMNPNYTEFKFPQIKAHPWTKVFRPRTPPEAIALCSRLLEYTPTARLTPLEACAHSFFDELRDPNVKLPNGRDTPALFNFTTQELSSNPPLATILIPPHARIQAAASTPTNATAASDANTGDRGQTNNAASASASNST
Acetylcholinesterase, sequence (P22303 whole entry): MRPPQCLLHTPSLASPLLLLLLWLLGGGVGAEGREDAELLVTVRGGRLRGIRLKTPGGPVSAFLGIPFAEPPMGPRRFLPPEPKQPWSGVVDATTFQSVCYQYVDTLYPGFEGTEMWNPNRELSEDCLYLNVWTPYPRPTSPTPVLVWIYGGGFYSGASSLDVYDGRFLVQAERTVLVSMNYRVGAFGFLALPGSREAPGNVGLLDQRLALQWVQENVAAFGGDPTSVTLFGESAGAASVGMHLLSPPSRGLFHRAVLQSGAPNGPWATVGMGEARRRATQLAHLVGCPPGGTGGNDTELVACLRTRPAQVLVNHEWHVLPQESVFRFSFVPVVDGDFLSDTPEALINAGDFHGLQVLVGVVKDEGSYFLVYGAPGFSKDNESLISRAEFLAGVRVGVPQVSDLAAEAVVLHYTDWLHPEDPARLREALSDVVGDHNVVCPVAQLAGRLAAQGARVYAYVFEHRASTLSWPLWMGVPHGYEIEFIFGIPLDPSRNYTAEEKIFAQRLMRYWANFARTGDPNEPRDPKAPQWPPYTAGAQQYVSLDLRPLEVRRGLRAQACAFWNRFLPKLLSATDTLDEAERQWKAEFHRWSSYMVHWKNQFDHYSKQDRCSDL

Structure (SMILES): NC(=O)c1sc(-c2ccnc(NC(=O)C3CC3)c2)nc1OCCCC1CCN(Cc2ccccc2F)CC1
IC50 (Cholinesterase): 4.2 µM | Papp at 18 h, 25 ug/ml (in vitro): 7.1 ×10⁻⁶ cm/s | IC50 [1]: 0.015 µM | IC50 (Acetylcholinesterase): 1.32 µM

Structure (SMILES): NC(=O)c1sc(-c2ccnc(NC(=O)C3CC3)c2)nc1OCC1CCN(Cc2ccccc2)CC1
AUC(0-inf) [2]: 688 ng·h/mL | half-life [3]: 6.7 h | Tmax [4]: 6 min | IC50 (Cholinesterase): 12.7 µM | CL/F [5]: 267 mL/min/kg | MRT last at 24 h [6]: 8.1 h | Tmax [7]: 4.5 h | AUC(0-inf) [8]: 1820 ng·h/mL | bioavailability [9]: 40.7% | Vd [10]: 93.6 L/kg | clearance [11]: 104 mL/min/kg | AUC(0-t) [12]: 622 ng·h/mL | Cmax [13]: 67.3 ng/mL | Papp at 18 h, 25 ug/ml (in vitro): 6.4 ×10⁻⁶ cm/s | Cmax [14]: 507 ng/mL | half-life [15]: 4.5 h | IC50 [1]: 0.094 µM | AUC(0-t) [16]: 1540 ng·h/mL | MRT last at 24 h [17]: 9.1 h | Vd [18]: 55.2 L/kg | IC50 (Acetylcholinesterase): 1.5 µM

Structure (SMILES): CNC(=O)c1sc(-c2ccnc(NC(=O)C3CC3)c2)nc1OCC1CCN(Cc2ccccc2F)CC1
IC50 (Cholinesterase): 11 µM | IC50 [1]: 0.014 µM | IC50 (Acetylcholinesterase): 9 µM

Structure (SMILES): NC(=O)c1sc(-c2ccnc(NC(=O)C3CC3)c2)nc1OCCC1CCN(Cc2ccccc2Cl)CC1
IC50 (Cholinesterase): 301 µM | Papp at 18 h, 25 ug/ml (in vitro): 6.8 ×10⁻⁶ cm/s | IC50 [1]: 0.027 µM | IC50 (Acetylcholinesterase): 3.7 µM

Structure (SMILES): NC(=O)c1sc(-c2ccnc(NC(=O)C3CC3)c2)nc1OCCC1CCN(Cc2cccc(F)c2)CC1
IC50 (Cholinesterase): 295 µM | Papp at 18 h, 25 ug/ml (in vitro): 7 ×10⁻⁶ cm/s | IC50 [1]: 0.026 µM | IC50 (Acetylcholinesterase): 4.7 µM

Structure (SMILES): CNC(=O)c1sc(-c2ccnc(NC(=O)C3CC3)c2)nc1OCC1CCN(Cc2cccc(Br)c2)CC1
IC50 (Cholinesterase): 15 µM | IC50 [1]: 0.049 µM | IC50 (Acetylcholinesterase): 394 µM

Papp at 18 h, 25 ug/ml (in vitro): 2.5 ×10⁻⁶ cm/s
Structure (SMILES): CCn1cc(C(=O)O)c(=O)c2ccc(-n3cccc3)cc21

Structure (SMILES): CNC(=O)c1sc(-c2ccnc(NC(=O)C3CC3)c2)nc1OCC1CCN(Cc2ccccc2)CC1
IC50 (Cholinesterase): 14 µM | IC50 [1]: 0.016 µM | IC50 (Acetylcholinesterase): 8 µM

Papp at 18 h, 25 ug/ml (in vitro): 0.9 ×10⁻⁶ cm/s
Structure (SMILES): CCn1cc(C(=O)O)c(=O)c2cc(F)c(N3CCNC(C)C3)c(F)c21 (stereo not drawn) [LOMEFLOXACIN]

Structure (SMILES): NC(=O)c1sc(-c2ccnc(NC(=O)C3CC3)c2)nc1OCCCC1CCN(Cc2ccccc2)CC1
AUC(0-inf) [19]: 1760 ng·h/mL | Activity (BV-2 [20]): Dose-dependent effect | concentration at 1.5 h [21]: 84.9 ng/mL | AUC(0-inf) [2]: 453 ng·h/mL | Activity [22]: Non-Toxic | Activity (BV-2 [23]): Non-Toxic | Vd [24]: 30.7 L/kg | IC50 (Cholinesterase): 20.6 µM | Ratio [25]: 9.2 ng/kg | Activity (BV-2 [26]): Active | CL/F [5]: 296 mL/min/kg | Activity (BV-2 [27]): Active | MRT last at 24 h [6]: 9.2 h | Tmax [7]: 8 h | Activity (BV-2 [28]): Dose-dependent effect | Cmax [29]: 771 ng/mL | MRT last at 24 h [30]: 5.1 h | bioavailability [9]: 15.1% | Vd [10]: 77 L/kg | AUC(0-t) [12]: 440 ng·h/mL | Cmax [13]: 44.1 ng/mL | Activity [31]: Non-Toxic | Drug uptake [32]: 103 ng | Papp at 18 h, 25 ug/ml (in vitro): 10.9 ×10⁻⁶ cm/s | Activity (BV-2 [33]): Active | half-life [15]: 3.9 h | clearance [34]: 50.1 mL/min/kg | IC50 [1]: 0.008 µM | AUC(0-t) [35]: 1680 ng·h/mL | half-life [36]: 6.3 h | Tmax [37]: 4.98 min | IC50 (Acetylcholinesterase): 0.38 µM

Structure (SMILES): CNC(=O)c1sc(-c2ccnc(NC(=O)C3CC3)c2)nc1OCC1CCN(Cc2ccc(F)c(F)c2)CC1
IC50 (Cholinesterase): 20 µM | IC50 [1]: 0.062 µM | IC50 (Acetylcholinesterase): 80 µM

Structure (SMILES): NC(=O)c1sc(-c2ccnc(NC(=O)C3CC3)c2)nc1OCCCC1CCN(Cc2cccc(F)c2)CC1
IC50 (Cholinesterase): 1.8 µM | Papp at 18 h, 25 ug/ml (in vitro): 8.6 ×10⁻⁶ cm/s | IC50 [1]: 0.009 µM | IC50 (Acetylcholinesterase): 3 µM
